Assay results: patent US9573954B2, “Pyrazolopyrimidine compounds” (University Health Network, priority 2012, dated 2017)

How the values were obtained:
[1] = test system: colon cancer cells (HCT116); assay: Cancer cell line growth inhibition, Sulforhodamine B assay, HCT116; assay type: cell-based; conditions: Homo sapiens, HCT-116, 120 h, Table 2; HCT116, 5 days, SRB; read-out: Cancer Cell Line GI50 Range HCT116
Summary of the method: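 HCT116 cells, 1000–4000 per well, seeded 24 h ahead, then treated 5 days with compound at 10 nM to 50 μM final in DMEM with 10% FBS. Growth measured by sulforhodamine B staining after TCA fixation, A570; GI50 from inhibition relative to DMSO-only cells.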

[2] = test system: Colon 12 tumor initiating cells; assay: Tumor-initiating cell growth inhibition, Alamar Blue assay, colon TICs; assay type: cell-based; conditions: 216 h; Table 2; colon TICs, 9 days, Alamar Blue; read-out: Tumor Initiating Cell GI50 Range Colon 12
Summary of the method: (§1)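 Colon TICs (4,000/well, non-TC plates) and ovarian TICs (1,000/well, TC plates) kept in serum-free DMEM:F12 with B-27, heparin, bFGF and EGF. Compound added after 24 h at 0.1% DMSO, then 9 days (colon) or 6 days (ovarian) at 37° C. GI50 from Alamar Blue fluorescence (ex 544/em 590) after 4 h.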

[3] = test system: breast cancer cells (MDA-MB-231); assay: Cancer cell line growth inhibition, Sulforhodamine B assay, MDA-MB-231; assay type: cell-based; conditions: Homo sapiens, 120 h; Table 2; MDA-MB-231, 5 days, SRB; read-out: Cancer Cell Line GI50 Range MDA-MB-231
Procedure: Breast cancer cells (MDA-MB-231 and MDA-MB-468), colon cancer cells (HCT116) and ovarian cancer cells (PA-1 and OVCAR-3) were seeded (1000 to 4000 in 80 μl per well depending on the cell growth rate) into 96 well plates 24 hours before compound overlay. Compounds were prepared as 10 mM stock solutions in 100% DMSO which were diluted with DMEM (Dulbecco's Modified Eagle's Medium) cell growth Medium (Invitrogen, Burlington, ON, Canada) containing 10% FBS (Fetal Bovine Serum) to concentrations ranging from 50 nM to 250 μM. Aliquots (20 μl) from each concentration were overlaid to 80 μl of the pre-seeded cells in the 96 well plates to make final concentrations of 10 nM to 50 μM. The cells were cultured for 5 days before the Sulforhodamine B assay (SRB) was performed to determine the compound's cell growth inhibition activity.
Sulforhodamine B (purchased from Sigma, Oakville, ON, Canada) is a water-soluble dye that binds to the basic amino acids of the cellular proteins. Thus, colorimetric measurement of the bound dye provides an estimate of the total protein mass that is related to the cell number. the cells are fixed in situ by gently aspirating off the culture media and adding 50 μl ice cold 10% Trichloroacetic Acid (TCA) per well and incubate at 4° C. for 30-60 min, The plates are washed with H2O five times and allowed to air dry for 5 min. Addition of 50 μl 0.4% (w/v) SRB solution in 1% (v/v) acetic acid to each well and incubation for 30 min at RT completes the staining reaction. Following staining, plates are washed four times with 1% acetic acid to remove unbound dye and then allowed to air dry for 5 min. The stain is solubilized with 100 μl of 10 mM Tris pH 10.5 per well. Absorbance is read at 570 nm.
The percentage (%) of relative growth inhibition was calculated by comparing to DMSO treated only cells (100%). GI50's were determined for compounds with cytotoxic activity. The GI50 was calculated using GraphPad PRISM software (GraphPad Software, Inc., San Diego, Calif., USA).
In Table 2 below, GI50 value ranges for compound examples against breast cancer cell lines (MDA-MB-231), colon cancer cell lines (HCT116) and ovarian cancer cell lines (PA-1) are given.

[4] = test system: ovarian cancer cells (PA-1); assay: Cancer cell line growth inhibition, Sulforhodamine B assay, PA-1; assay type: cell-based; conditions: 120 h; Table 2; PA-1, 5 days, SRB; read-out: Cancer Cell Line GI50 Range PA-1
Summary of the method: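 PA-1 ovarian cancer cells seeded 24 h before compound, then exposed to final 10 nM to 50 μM in DMEM/10% FBS for 5 days. Cell mass measured by TCA fixation and sulforhodamine B staining, absorbance 570 nm; GI50 derived from growth inhibition relative to DMSO-treated cells.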

[5] = test system: Ovarian 2393A tumor initiating cells; assay: Tumor-initiating cell growth inhibition, Alamar Blue assay, ovarian TICs; assay type: cell-based; conditions: 144 h; Table 2; ovarian TICs, 6 days, Alamar Blue; read-out: Tumor Initiating Cell GI50 Range Ovarian 2393A
Summary of the method: as §1

[6] = biological target: T1, human TTK (Homo sapiens, UniProt P33981); assay: TTK inhibition assay (indirect ELISA); assay type: biochemical; conditions: Table 2; 16 μM ATP (asterisk); read-out: TTK IC50 Range
T1 construct: Active TTK was purchased from Invitrogen as an amino terminal GST fusion of full length human TTK; purchased Invitrogen
T1 sequence (P33981 1-857): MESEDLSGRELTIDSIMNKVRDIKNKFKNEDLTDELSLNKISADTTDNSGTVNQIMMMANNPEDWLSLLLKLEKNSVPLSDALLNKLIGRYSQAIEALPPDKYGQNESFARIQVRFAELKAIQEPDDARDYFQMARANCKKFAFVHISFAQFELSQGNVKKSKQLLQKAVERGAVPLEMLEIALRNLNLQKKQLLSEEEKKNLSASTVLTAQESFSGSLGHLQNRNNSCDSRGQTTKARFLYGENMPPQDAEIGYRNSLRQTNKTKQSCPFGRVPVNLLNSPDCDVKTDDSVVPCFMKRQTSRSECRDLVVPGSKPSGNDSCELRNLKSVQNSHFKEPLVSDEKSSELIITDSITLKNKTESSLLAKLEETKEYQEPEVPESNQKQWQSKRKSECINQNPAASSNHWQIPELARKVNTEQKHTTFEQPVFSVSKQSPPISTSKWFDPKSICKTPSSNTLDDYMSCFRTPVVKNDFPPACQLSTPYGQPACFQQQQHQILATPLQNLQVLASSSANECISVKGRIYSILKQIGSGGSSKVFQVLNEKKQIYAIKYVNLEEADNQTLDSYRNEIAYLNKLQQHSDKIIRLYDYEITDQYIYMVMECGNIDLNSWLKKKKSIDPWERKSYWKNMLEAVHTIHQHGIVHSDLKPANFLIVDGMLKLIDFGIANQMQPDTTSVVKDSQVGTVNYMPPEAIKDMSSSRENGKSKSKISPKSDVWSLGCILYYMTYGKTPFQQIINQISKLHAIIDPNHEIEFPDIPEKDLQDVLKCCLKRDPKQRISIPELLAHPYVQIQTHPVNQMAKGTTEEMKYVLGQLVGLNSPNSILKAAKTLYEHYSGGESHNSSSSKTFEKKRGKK
Summary of the method: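 Activity detected by indirect ELISA after compounds sat with full-length GST-TTK for 5 min prior to starting the reaction with ATP. IC50 came from a four-parameter logistic curve of % inhibition, calculated against background and uninhibited control wells.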

GI50 [1] [nM] | GI50 [2] [nM] | GI50 [3] [nM] | GI50 [4] [nM] | GI50 [5] [nM] | IC50 [6] [nM] | Compound
≤ 100 | ≤ 100 | ≤ 100 | ≤ 100 | ≤ 100 | < 100 | O=C(NC1CC1)c1ccc(-c2cnn3c(NCC4CCOCC4)cc(Oc4ccccc4)nc23)cc1Cl [Example B7, 2-chloro-N-cyclopropyl-4-(5-phenoxy-7-(((tetrahydro-2H-pyran-4-yl)methyl)amino)pyrazolo[1,5-a]pyrimidin-3-yl)benzamide]
100 to 500 | 100 to 500 | 100 to 500 | ≤ 100 | 100 to 500 | < 100 | O=C(NC1CC1)c1ccc(-c2cnn3c(NCCN4CCOCC4)cc(Oc4ccccc4)nc23)cc1 [Example B6, N-cyclopropyl-4-(7-((2-morpholinoethyl)amino)-5-phenoxypyrazolo[1,5-a]pyrimidin-3-yl)benzamide]
100 to 500 | 100 to 500 | 100 to 500 | ≤ 100 | 100 to 500 | < 100 | Cc1cc(-c2cnn3c(NCCCN4CCOCC4)cc(Oc4ccccc4)nc23)ccc1C(=O)NC1CC1 [Example B19, N-cyclopropyl-2-methyl-4-(7-((3-morpholinopropyl)amino)-5-phenoxypyrazolo[1,5-a]pyrimidin-3-yl)benzamide]
